Laboratory results reported in patent publication US20240122878A1 (priority 2021, published 2024).
Where “and” joins values, the source holds several entries; their conditions need not be identical. Equal values may be shown once. Read-outs that look alike come from different tables or passages of the source.

How the values were obtained:
[1] = system: patients with major depressive disorder; experiment: Phase 2a cardiodynamic ECG evaluation (concentration-QTc and by-time point analysis); type: in vivo, human
Description: (§1) Timed PK assessments were performed on Day 1 and after approximately 23 hours post Day 1 dosing, and thus for the exposure-response analysis only the Day 1 ECG data is utilized.
The 12-lead digital ECG equipment was supplied and supported by the central ECG core lab vendor, eResearch Technology, Inc., ERT (Philadelphia, PA). After a supine rest period, ECGs were collected in triplicate at the pre-specific time points indicated within the study protocol and described below.
Twelve-lead ECGs were to be performed in triplicate approximately 1 minute apart after lying quietly for at least 3 min at: • Screening • Check-in (Day—1) • Day 1: 1 hour pre-dose and 2 hours, 4 hours, 6 hours, and 8 hours post-dose on Day 1 • Day 2: 1 hour pre-dose (corresponding to 23 hours post-dose on Day 1) and 2 hours, 4 hours, 6 hours, and 8 hours post-dose • Days 3-7: 2 hours post-dose • Day 8 • Prior to discharge on Day 9 • End of the observation period (Day 14)
The QT and RR value for each measured beat were used for HR correction. Three beats were measured on each of the triplicate ECGs at each time point. The mean value from each triplicate tracing was calculated, and then the mean of all available measurements from a nominal time point were used as the patient's reportable value at that time point. • 5. ECG Methodology: Central Laboratory
[published correction appears in J Pharmacokinet Pharmacodyn. […] J Pharmacokinet Pharmacodyn. […] In all calculations, concentrations in patients who received placebo were set to zero.
(§2) The geometric mean of the individual Cmax values for patients in each of the active dose groups was determined.
An unstructured covariance matrix was specified for the repeated measures at post-dose time points within patient.

healthy volunteers = experiment: Phase 1 study esmethadone-112 concentration-QTc sub-analysis; type: in vivo, human
[2] = Phase 1 pharmacokinetics of immediate release esmethadone (Bernstein 2019); type: in vivo; details: human, plasma; 25 mg oral daily dosing ×10 days; read-out: Steady state Cmax
Description: […]. […] Therefore, dose proportionality and linearity after oral administration of each of the three molecules, based on the data from Bernstein 2019 and Foster 2004 are expected. […].
Steady state Curough concentrations (measured at Day 10) were 142.7, 326.2 and 338.8 ng/ml respectively.

[3] = Phase 2a study plasma pharmacokinetics; type: in vivo, human; details: for Cmax: human, in vivo, C-QTc population
Description: as §1
PK sampling was done on Day 1 at 1 hour pre-dose and 0.5, 1, 2, 4, 6, 8, and 12 hours post-dose. On Day 2 through Day 7, sampling was done 1 hour pre-dose. On Day 8, sampling was done approximately 24 hours after the last dose of study drug (on Day 7). On Day 9, sampling was done approximately 48 hours after the last dose (on Day 7).
as §2

[4] = cited from earlier work
hERG = hERG (Homo sapiens, UniProt Q12809); experiment: GLP hERG channel current study of esmethadone; details: human
hERG, sequence (Q12809 whole entry): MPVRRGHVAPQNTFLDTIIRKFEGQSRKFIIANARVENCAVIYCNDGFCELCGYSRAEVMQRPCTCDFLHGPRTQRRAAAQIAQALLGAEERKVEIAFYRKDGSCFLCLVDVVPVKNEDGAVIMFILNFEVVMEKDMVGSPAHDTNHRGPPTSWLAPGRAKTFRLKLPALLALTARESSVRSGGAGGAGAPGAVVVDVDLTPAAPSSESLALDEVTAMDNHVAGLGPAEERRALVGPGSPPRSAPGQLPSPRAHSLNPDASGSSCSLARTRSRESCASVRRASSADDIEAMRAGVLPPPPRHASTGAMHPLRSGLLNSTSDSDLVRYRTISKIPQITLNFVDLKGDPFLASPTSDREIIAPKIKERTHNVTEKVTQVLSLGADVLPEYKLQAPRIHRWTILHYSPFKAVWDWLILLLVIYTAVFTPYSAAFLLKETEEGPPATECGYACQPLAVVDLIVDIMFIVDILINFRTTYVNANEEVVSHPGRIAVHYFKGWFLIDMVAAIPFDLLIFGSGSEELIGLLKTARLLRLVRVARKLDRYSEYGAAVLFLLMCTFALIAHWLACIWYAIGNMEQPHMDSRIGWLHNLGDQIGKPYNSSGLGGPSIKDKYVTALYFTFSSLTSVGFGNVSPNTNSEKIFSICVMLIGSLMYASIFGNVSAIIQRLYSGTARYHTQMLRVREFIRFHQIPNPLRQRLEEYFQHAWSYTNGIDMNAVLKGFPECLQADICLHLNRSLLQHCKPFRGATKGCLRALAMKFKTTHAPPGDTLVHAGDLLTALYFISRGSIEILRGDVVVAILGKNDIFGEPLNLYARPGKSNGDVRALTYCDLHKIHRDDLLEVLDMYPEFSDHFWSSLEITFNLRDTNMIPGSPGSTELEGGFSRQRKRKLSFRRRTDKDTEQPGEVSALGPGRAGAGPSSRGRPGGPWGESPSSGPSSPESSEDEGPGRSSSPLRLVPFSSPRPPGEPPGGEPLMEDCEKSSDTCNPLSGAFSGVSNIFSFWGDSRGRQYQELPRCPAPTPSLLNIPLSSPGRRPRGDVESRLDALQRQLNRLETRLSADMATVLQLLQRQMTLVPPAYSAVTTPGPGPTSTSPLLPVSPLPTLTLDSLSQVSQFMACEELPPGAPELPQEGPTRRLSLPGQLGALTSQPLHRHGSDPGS

[5] = molecular target: hERG (human ether-à-go-go-related gene) channel current (Homo sapiens, UniProt Q12809); experiment: GLP hERG channel current study of esmethadone
hERG (human ether-à-go-go-related gene) channel current, sequence (Q12809 whole entry): as above

[6] = linear mixed-effects model, C-QTc population

With `CCC(=O)C(C[C@H](C)N(C)C)(c1ccccc1)c1ccccc1` [esmethadone] the “Model-predicted ΔΔQTcF at 10 ms Threshold concentration” value ([1]; 300 ng/ml, linear model, (90% CI)) was 7.18 (4.36, 10.00) ms, the “Model-predicted ΔΔQTcF at geometric mean Cmax” value ([1]; 25 mg QD group after 75 mg loading dose, 265.2 ng/mL, linear model, (90% CI)) was 6.7 ms and 6.71 ms and 6.71 (3.94, 9.48) ms and the “Maximum LS mean ΔΔQTcF, by-time point analysis” value ([1]; 25 mg dose group (75 mg loading), Day 2 pre-dose time point) was 7.7 ms. The “Model-predicted ΔΔQTcF at geometric mean Cmax” value ([1]; 50 mg QD group after 100 mg loading dose, 337.8 ng/mL, linear model, (90% CI)) was 7.7 ms and 7.69 ms and 7.69 (4.80, 10.58) ms, the “Maximum LS mean ΔΔQTcF, by-time point analysis” value ([1]; 50 mg dose group (100 mg loading), Day 1, 8 hour time point) was 10.9 ms and the “Slope of the concentration-QTc relationship (esmethadone Slope)” value [1, 6] was 0.014 ms per ng/mL. The “Treatment effect-specific intercept (Treatment Effect)” value [1, 6] was 3.11 ms, the ECG morphology changes ([1]; studied doses) was “no clinically significant ECG morphology changes” and the “Effect on QTc” value ([1]; studied doses) was “modest, dose-dependent increase in QTc”. For the same compound, the “Effect on heart rate, PR, or QRS” value ([1]; studied doses) was “no clinically significant effect”, the “Effect on HR” value (healthy volunteers; Day 10) was “mild HR slowing” and the “Peak ΔΔQTcF, time-based central tendency analysis” value (“Peak ΔΔQTcF” below) (healthy volunteers; Day 10, 25 mg cohort) was 11.5 ms. For the same compound, the “Peak ΔΔQTcF” value (healthy volunteers; Day 10, 50 mg QD cohort) was 26.8 ms, the “Peak ΔΔQTcF” value (healthy volunteers; Day 10, 75 mg QD cohort) was 28.8 ms and the “Subjects with pronounced QTcF prolongation (QTcF>60 ms or absolute QTcF>480 ms)” value (healthy volunteers; categorical analysis, any treatment group) was “no subjects”. For the same compound, the “Effects on the PR or QRS intervals” value (healthy volunteers; in vivo) was “no clinically meaningful effects”, the Cmax [2] was 273 ng/mL and the “Highest PK values on Day 1” value ([3]; 25 mg (75 mg Day 1)) was 254.5 ng/mL. For the same compound, the “Highest PK values on Day 1” value ([3]; 50 mg (100 mg Day 1)) was 343.9 ng/mL, the Cmax ([3]; 25 mg QD group, Day 1 after 75 mg loading dose) was 265 ng/mL and the Cmax ([3]; 50 mg QD group, Day 1 after 100 mg loading dose) was 338 ng/mL. For the same compound, the “Steady state Ctrough concentration (Day 10)” value ([4]; 25 mg) was 142.7 ng/mL, the “Steady state Ctrough concentration (Day 10)” value ([4]; 50 mg) was 326.2 ng/mL and the “Steady state Ctrough concentration (Day 10)” value ([4]; 75 mg) was 338.8 ng/mL. It also gave an inhibition at 0.3 µM (hERG) of 27.3 ± 1.6%, an inhibition at 1 µM (hERG) of 48.8 ± 3.4% and an inhibition at 3 μM (hERG) of 68.6 ± 0.3%. The inhibition at 10 µM (hERG) was 88.6 ± 0.7%, the IC50 [5] was 1000 nM and the Hill coefficient ([5]; GLP study) was 0.8.
